Source: PubChem BioAssay (NCI)
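In this assay, cells in 96-well plates receive the compound at five concentrations for 48 hours. Endpoints are linearly interpolated between the surrounding concentrations. TGI marks complete inhibition of growth.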

Assays:
Test in all cases: inhibition of tumour cell growth, NCI panel, 48 h
SF-295 CNS = system: SF-295 CNS
HCC-2998 colon = system: HCC-2998 colon
HL-60(TB) leukemia = system: HL-60(TB) leukemia
KM12 colon = system: KM12 colon
BT-549 breast = system: BT-549 breast
SNB-75 CNS = system: SNB-75 CNS
TK-10 renal = system: TK-10 renal
EKVX NSCLC = system: EKVX NSCLC
SK-MEL-5 melanoma = system: SK-MEL-5 melanoma
K-562 leukemia = system: K-562 leukemia
SW-620 colon = system: SW-620 colon
CAKI-1 renal = system: CAKI-1 renal
SNB-19 CNS = system: SNB-19 CNS
MALME-3M melanoma = system: MALME-3M melanoma
DU-145 prostate = system: DU-145 prostate
HCT-15 colon = system: HCT-15 colon
HOP-62 NSCLC = system: HOP-62 NSCLC
HCT-116 colon = system: HCT-116 colon
MDA-MB-231 breast = system: MDA-MB-231 breast
NCI-H522 lung = system: NCI-H522 lung
T-47D breast = system: T-47D breast
NCI/ADR-RES ovarian = system: NCI/ADR-RES ovarian
UACC-62 melanoma = system: UACC-62 melanoma
ACHN renal = system: ACHN renal
U251 CNS = system: U251 CNS
M14 melanoma = system: M14 melanoma
OVCAR-8 ovarian = system: OVCAR-8 ovarian
NCI-H23 lung = system: NCI-H23 lung
LOX IMVI melanoma = system: LOX IMVI melanoma
SK-MEL-2 melanoma = system: SK-MEL-2 melanoma
NCI-H226 lung = system: NCI-H226 lung
IGROV1 ovarian = system: IGROV1 ovarian
SK-MEL-28 melanoma = system: SK-MEL-28 melanoma
MDA-MB-435 = system: MDA-MB-435
HS 578T breast = system: HS 578T breast
MCF7 breast = system: MCF7 breast
SF-539 CNS = system: SF-539 CNS
OVCAR-4 ovarian = system: OVCAR-4 ovarian
A498 renal = system: A498 renal
UO-31 renal = system: UO-31 renal
COLO 205 colon = system: COLO 205 colon
SN12C renal = system: SN12C renal
OVCAR-5 ovarian = system: OVCAR-5 ovarian
SF-268 CNS = system: SF-268 CNS
SR leukemia = system: SR leukemia
UACC-257 melanoma = system: UACC-257 melanoma
HT29 colon = system: HT29 colon
SK-OV-3 ovarian = system: SK-OV-3 ovarian
MOLT-4 leukemia = system: MOLT-4 leukemia
A549 NSCLC = system: A549 NSCLC
CCRF-CEM leukemia = system: CCRF-CEM leukemia
786-0 renal = system: 786-0 renal
NCI-H460 lung = system: NCI-H460 lung

CC(=O)Nc1ccc2c(c1)[nH]c(=O)c1cc(Cl)ccc12
TGI (SF-295 CNS): > 100 µM | TGI (HCC-2998 colon): > 100 µM | TGI (HL-60(TB) leukemia): > 100 µM | TGI (KM12 colon): > 100 µM | TGI (BT-549 breast): > 100 µM | TGI (SNB-75 CNS): > 100 µM | TGI (TK-10 renal): 60.4 µM | TGI (EKVX NSCLC): > 100 µM | TGI (SK-MEL-5 melanoma): > 100 µM | TGI (K-562 leukemia): > 100 µM | TGI (SW-620 colon): > 100 µM | TGI (CAKI-1 renal): 8.4 µM | TGI (SNB-19 CNS): > 100 µM | TGI (MALME-3M melanoma): 46.7 µM | TGI (DU-145 prostate): > 100 µM | TGI (HCT-15 colon): > 100 µM | TGI (HOP-62 NSCLC): > 100 µM | TGI (HCT-116 colon): > 100 µM | TGI (MDA-MB-231 breast): > 100 µM | TGI (NCI-H522 lung): > 100 µM | TGI (T-47D breast): > 100 µM | TGI (NCI/ADR-RES ovarian): > 100 µM | TGI (UACC-62 melanoma): > 100 µM | TGI (ACHN renal): > 100 µM | TGI (U251 CNS): > 100 µM | TGI (M14 melanoma): > 100 µM | TGI (OVCAR-8 ovarian): 64.9 µM | TGI (NCI-H23 lung): > 100 µM | TGI (LOX IMVI melanoma): > 100 µM | TGI (SK-MEL-2 melanoma): > 100 µM | TGI (NCI-H226 lung): 90.4 µM | TGI (IGROV1 ovarian): > 100 µM | TGI (SK-MEL-28 melanoma): > 100 µM | TGI (MDA-MB-435): > 100 µM | TGI (HS 578T breast): > 100 µM | TGI (MCF7 breast): 77.7 µM | TGI (SF-539 CNS): > 100 µM | TGI (OVCAR-4 ovarian): > 100 µM | TGI (A498 renal): > 100 µM | TGI (UO-31 renal): > 100 µM | TGI (COLO 205 colon): > 100 µM | TGI (SN12C renal): > 100 µM | TGI (OVCAR-5 ovarian): > 100 µM | TGI (SF-268 CNS): > 100 µM | TGI (SR leukemia): 18.4 µM | TGI (UACC-257 melanoma): 59.5 µM | TGI (HT29 colon): 41.5 µM | TGI (SK-OV-3 ovarian): > 100 µM | TGI (MOLT-4 leukemia): 8.53 µM | TGI (A549 NSCLC): > 100 µM | TGI (CCRF-CEM leukemia): 13.4 µM | TGI (786-0 renal): > 100 µM | TGI (NCI-H460 lung): 52.9 µM
